“Also recorded” adds a separate entry of the source. No end group written: not given here.
Tests used:
[1] = GAG microarray binding (47 GAGs); details: biotinylated peptide
Experimental: To assess the binding selectivity of biotinylated p5+14 and p5R peptides, we used a commercial glycosaminoglycan (GAG) binding microarray (ZBiotech, CO, USA), which contains 16 subarrays each consisting of 47 differing GAGs (varying lengths, charges, and composition (Supplementary Figure S1)) plus internal controls. Increasing concentrations of each peptide were evaluated on the subarrays. The GAG arrays consisted of exemplar hyaluronic acid (HA), heparin, chondroitin sulfate A/C (CS-AC), chondroitin sulfate D (CS-D), dermatan sulfate (DS), heparan sulfate (HS with low to intermediate sulfation levels), heparan sulfate (HS with high sulfation levels), and […] (KS). Background corrected binding of peptides p5+14 and p5R, at 2 µg/mL, to each GAG is shown in Figure 4A,B (additional concentrations are shown in Supplementary Figure S2). […] For heparin and highly sulfated HS, the binding intensity closely paralleled the total negative charge for each GAG (Figure 4C).
Glycosaminoglycan (GAG) microarray binding studies were performed by Z Biotech (Z Biotech, LLC, Aurora, CO, USA). Briefly, microarrays were laid out in a 16-subarray arrangement with 47 GAG or 24 heparan sulfate (HS) binding targets per subarray. Spotted arrays were blocked at room temperature (RT) for 30 min with Glycan Array Blocking Buffer (Z Biotech, LLC, Aurora, CO, USA) before being washed. Biotinylated peptides were diluted in blocking buffer + 1% bovine serum albumin to final concentrations of 50, 10, 2, 0.4, and 0.08 µg/mL and the solutions added to the arrays for 1 h at RT. […] The fluorescence emission was quantified by scanning at 532 nm and evaluated using Mapix microarray software (Innopsys, Carbonne, France). […]
(§1) Data visualization, statistical analysis, and correlations were performed using GraphPad Prism v 9.4.1 or later. […] Apparent affinities (Ec50) of peptides to array substrates were calculated using sigmoidal 4PL curve fitting to calculate the Ec50 in µg/mL, which was converted to molarity using the appropriate peptide molecular weight.

[2] = GAG array apparent EC50, CS-AC (GAG22); format: binding; details: biotinylated peptide, n = 4; for EC50: 1 h RT, 4PL fit
Text: (§2) One exemplar GAG from the groups of heparin, HS, CS-AC, and CS-D was chosen to assess the Ec50 (concentration at the midpoint of binding). Bound peptide fluorescence was plotted against the concentration of peptide and a sigmoidal 4PL binding curve fit to the data (Figure 6). For GAGs with high peptide binding (heparin, HS, and highly sulfated CS-D), Ec50 calculations could be performed for both biotinylated p5+14 and p5R (Figure 6A,C,D). […] The differential binding potency, despite the shared selectivity, is likely due to the higher net charge on p5+14 (+12) compared with p5R (+8).
(§3) Glycosaminoglycan (GAG) microarray binding studies were performed by Z Biotech (Z Biotech, LLC, Aurora, CO, USA). Briefly, microarrays were laid out in a 16-subarray arrangement with 47 GAG or 24 heparan sulfate (HS) binding targets per subarray. Spotted arrays were blocked at room temperature (RT) for 30 min with Glycan Array Blocking Buffer (Z Biotech, LLC, Aurora, CO, USA) before being washed. Biotinylated peptides were diluted in blocking buffer + 1% bovine serum albumin to final concentrations of 50, 10, 2, 0.4, and 0.08 µg/mL and the solutions added to the arrays for 1 h at RT. The arrays were then washed again and streptavidin-Cy3 (0.2 µg/mL) added, followed by a 1-h incubation. The fluorescence emission was quantified by scanning at 532 nm and evaluated using Mapix microarray software (Innopsys, Carbonne, France). Background control data were subtracted from binding signals before the data were averaged.
(§4) Data visualization, statistical analysis, and correlations were performed using GraphPad Prism v 9.4.1 or later. Correlations of peptide binding to microarray substrates were performed using Pearson’s correlations. Apparent affinities (Ec50) of peptides to array substrates were calculated using sigmoidal 4PL curve fitting to calculate the Ec50 in µg/mL, which was converted to molarity using the appropriate peptide molecular weight.

[3] = GAG array apparent EC50, HS (GAG46); format: binding; details: biotinylated peptide, highly sulfated HS, 4PL fit, n = 4
Text: as §2
(§5) Glycosaminoglycan (GAG) microarray binding studies were performed by Z Biotech (Z Biotech, LLC, Aurora, CO, USA). Briefly, microarrays were laid out in a 16-subarray arrangement with 47 GAG or 24 heparan sulfate (HS) binding targets per subarray. […] The fluorescence emission was quantified by scanning at 532 nm and evaluated using Mapix microarray software (Innopsys, Carbonne, France). […]
as §1

[4] = HS array apparent Ec50, HS24; format: binding; details: biotinylated peptide, 4PL fit, n = 6
Experimental: (§6) Biotinylated peptide binding to four of the HS glycans in the array were analyzed further to assess the estimated binding potency (Figure 9). […] The HS glycans used in this binding analysis contained fewer saccharide units and less total charge compared with that shown in Figure 6D, which may explain the difference in the estimated potency data.
(§7) Glycosaminoglycan (GAG) microarray binding studies were performed by Z Biotech (Z Biotech, LLC, Aurora, CO, USA). Briefly, microarrays were laid out in a 16-subarray arrangement with 47 GAG or 24 heparan sulfate (HS) binding targets per subarray. Spotted arrays were blocked at room temperature (RT) for 30 min with Glycan Array Blocking Buffer (Z Biotech, LLC, Aurora, CO, USA) before being washed. […] The fluorescence emission was quantified by scanning at 532 nm and evaluated using Mapix microarray software (Innopsys, Carbonne, France). […]
as §1

[5] = GAG array apparent EC50, CS-D (GAG28); format: binding; details: biotinylated peptide; for EC50: 1 h RT, 4PL fit, n = 4
Text: as §2, §3, §4

[6] = HS array apparent Ec50, HS22; format: binding; details: biotinylated peptide, 4PL fit, n = 6
Experimental: as §6, §7, §1

[7] = Circular dichroism secondary structure; format: physicochemical
Experimental: Peptide secondary structures were analyzed by circular dichroism using an Olis RSM 1000 (On-line Instrument Systems, Inc., Bogart, GA, USA). Each study consisted of three replicates that were averaged and the dilution/background spectra subtracted. Non-biotinylated peptides were diluted to 0.05 mg/mL in phosphate buffered saline (PBS). For experiments involving the addition of enoxaparin (Amphastar Pharmaceuticals Inc., Rancho Cucamonga, CA., USA), enoxaparin was added to diluted peptide in PBS to reach a final concentration of 0–66.7 µg/mL. For experiments involving the addition of 2,2,2-trifluoroethanol (TFE) (Thermo Fisher Scientific, Waltham, MA, USA), TFE was added to diluted peptide in PBS to reach a final concentration of 0–40%.

[8] = GAG array apparent EC50, heparin (GAG16); format: binding; details: biotinylated peptide, 1 h RT, n = 4
Text: as §2, §5, §1

[9] = Heparan sulfate microarray binding (24 HS); details: biotinylated peptide; 0.4, 2, 10 µg/mL; n = 6
Experimental: This array comprised 24 structurally unique synthetic HS domains that varied in length, net charge, and charge density (Supplementary Figure S3). The binding of biotinylated peptides p5+14 (Figure 7A) and p5R (Figure 7B) to the HS array was performed as above, using increasing concentrations of peptide. The intensity of binding for both peptides, based on the fluorescence intensity, was closely related to the total charge (total sulfations) of the ligand (Figure 7, shown in red).
as §7, §1

[10] = HS array apparent Ec50, HS16; format: binding; details: biotinylated peptide, 4PL fit, n = 6
Experimental: as §6, §7, §1

[11] = PET/CT imaging of patients with systemic amyloidosis; format: in vivo, human; details: PET/CT at 5 h post injection
Experimental: Patients were imaged with p5+14 as part of the first-in-human, open label, Phase 1 study (NCT03678259). Synthesis of ^124I-labeled p5+14 has previously been reported. Briefly, lyophilized human grade peptide (Attralus, Inc., Naples, FL, USA) was radiolabeled on the day of use with iodine-124 (3D Imaging, Little Rock, AR, USA) using iodogen as the oxidant. Subjects were administered a 2 mCi dose of I-124 (<2 mg of peptide) intravenously. PET/CT images were acquired from crown to thighs at 5 h post injection, using a Siemens Biograph PET/CT (Siemens Healthineers, Malvern, PA, USA) with 5 min bed positions for the PET and a low dose CT (120 kVp, 50 effective mAs).
Data were reconstructed using a 3-dimensional ordered subset expectation maximization algorithm with attenuation and prompt gamma corrections, a 168 × 168 image matrix, and an image resolution of ~8 mm full width at half maximum. CT reconstruction utilized a medium smoothing kernel and 4 mm reconstruction increments. Patient PET/CT images were generated using Inveon Research Workplace software (Ed. 4.2 [4.2.0.15]; Siemens Preclinical Solutions).

[12] = HS array apparent Ec50, HS13; format: binding; details: biotinylated peptide; increasing peptide concentration; n = 6
Experimental: as §6, §7, §1

[13] = cited from earlier work
Text: The concept of pan-amyloid reactive agents is not a new one. […] The binding sites are recurring with defined periodicity, which results in Congo red birefringence when stained amyloid is viewed under cross polarized illumination,a and a red shift in the emission maximum and increase in the quantum yield when thiofl ...

[14] = cited from earlier work; remark: listed apart in the source
Text: Both peptides consist of a repeating heptad structure with periodic lysine (p5+14; -XXKXXXK-) or arginine (p5R; -XXRXXXR-) amino acids. […] These peptides also avidly bind other highly negatively charged linear molecules such as heparin and hypersulfated HSPG, the latter of which is associated with amyloid deposits in vivo [18, 20, 21, 22].

[15] = clinical studies (NCT02603172); cited from earlier work
Experimental: The impact of accessory proteins in amyloid deposits remains unclear; however, some components have been evaluated extensively. Serum amyloid P component, for example, was thought to stabilize the amyloid pathology and render it resistant to proteolysis and immunological clearance. This hypothesis was tested using a small molecule drug (miridesap) that crosslinks SAP, thereby clearing it from amyloid deposits, potentially leading to their clearance. […] This was ...

[16] = array in blocking buffer + 1% BSA, 0.08-50 µg/mL, streptavidin-Cy3, 532 nm, read-out: Apparent EC50
[17] = converted from µg/mL using peptide molecular weight, read-out: Apparent EC50 (Molarity)
[18] = HS array in blocking buffer + 1% BSA, 1 h RT, streptavidin-Cy3, 532 nm, read-out: Apparent Ec50
[19] = converted from µg/mL using peptide molecular weight, read-out: Apparent Ec50 (Molarity)
[20] = initial spectrum, non-biotinylated peptide 0.05 mg/mL in PBS, n = 3

GGGYSKAQKAQAKQAKQAQKAQKAQAKQAKQAQKAQKAQAKQAKQ [p5+14, 45-residue polybasic lysine heptad-repeat peptide, net charge +12]
GAG binding selectivity ([1]; 2 µg/mL, background corrected fluorescence, n = 4): preferential binding to heparin and highly sulfated HS GAGs; also recorded: Little to no binding to HA, CS-AC, CS-D (with singular exception), DS, and KS | Binding to GAGs that were not heparin or HS ([1]; 2 µg/mL, n = 4): very little binding | Affinity for heparin and HS immobilized in the arrays ([1]; compared with biotinylated p5R, GAG and HS arrays): higher affinity for both heparin and HS immobilized in the arrays | EC50 [2, 16]: 3.38 µg/mL | EC50 [2, 17]: 708 nM | Binding to CS-AC ([2]; fluorescence au vs peptide concentration): saturable binding | EC50 ([3]; array in blocking buffer + 1% BSA, 0.08-50 µg/mL, 1 h RT, streptavidin-Cy3, 532 nm, read-out: Apparent EC50): 0.932 µg/mL | EC50 [3, 17]: 196 nM | EC50 [4, 18]: 0.448 µg/mL | EC50 [4, 19]: 94 nM | Reactivity with CS-D GAGs ([5]; GAG28 compared with GAG23-GAG27): abrupt intense reactivity of the peptides with GAG28, but none of the other CS GAGs (GAG23-GAG27) | EC50 [5, 16]: 1.33 µg/mL | EC50 [5, 17]: 280 nM | EC50 [6, 18]: 0.473 µg/mL | EC50 [6, 19]: 99.3 nM | Secondary structure in solution ([7]; PBS pH 7.2): partially unfolded states in solution | Secondary structure with low molecular weight heparin ([7]; in PBS with enoxaparin): adopt an α-helical structure | CD large minimum [7, 20]: 208 nm | CD smaller minimum [7, 20]: 222 nm | Ratio of the CD minima with enoxaparin ([7]; non-biotinylated peptide 0.05 mg/mL in PBS, higher concentrations of enoxaparin (0-66.7 µg/mL), n = 3): ≥ 1 | Ratio of the CD minima with TFE ([7]; non-biotinylated peptide 0.05 mg/mL in PBS, increasing TFE (0-40%), n = 3): ≥ 1 | EC50 ([8]; array in blocking buffer + 1% BSA, 0.08-50 µg/mL, streptavidin-Cy3, 532 nm, sigmoidal 4PL fit, read-out: Apparent EC50): 1.2 µg/mL | EC50 ([8]; converted from µg/mL using peptide molecular weight, 4PL fit, read-out: Apparent EC50 (Molarity)): 251 nM | HS binding pattern [9]: the binding to HS appeared to correlate precisely with the total charge of the HS | EC50 [10, 18]: 0.668 µg/mL | EC50 [10, 19]: 140 nM | Organ uptake in patients ([11]; 2 mCi (<2 mg of peptide) i.v., patients with systemic amyloidosis): consistent with uptake in organs and tissues clinically known or suspected of amyloid deposition | Organ uptake in healthy subjects ([11]; 2 mCi i.v., healthy subjects): no pathologic uptake was observed | Binding to HS13 [12]: did not reach saturation

Cc1ccc2c(c1)sc(-c1ccc(N(C)C)cc1)[n+]2C [thioflavin T]
Amyloid binding [13]: bind all types of amyloid but not in a specific way

GGGYSRAQRAQARQARQAQRAQRAQARQARQ [p5R]
In vivo biodistribution vs basic fibroblast growth factor ([14]; ^125I-labeled): differed dramatically from that of the quintessential HSPG binding protein, basic fibroblast growth factor

serum amyloid P-component: biological reagent that exhibits pan-amyloid reactivity
Amyloid binding [13]: exhibit pan-amyloid reactivity

Nc1c(/N=N/c2ccc(-c3ccc(/N=N/c4cc(S(=O)(=O)O)c5ccccc5c4N)cc3)cc2)cc(S(=O)(=O)O)c2ccccc12 [Congo red]
Amyloid binding [13]: bind all types of amyloid but not in a specific way

O=C(O)[C@H]1CCCN1C(=O)CCCCC(=O)N1CCC[C@@H]1C(=O)O [miridesap]
Removal of amyloid in patients [15]: failed to promote the meaningful removal of amyloid in patients

bFGF: prototypical HS binding peptide [reference compound]
Binding in healthy tissues ([14]; healthy liver tissue and renal glomerulae): strong reactivity with healthy liver tissue and renal glomerulae

— paper PMC12472597, “Pan-Amyloid Reactive Peptides p5+14 and p5R Exhibit Specific Charge-Dependent Binding to Glycosaminoglycans” (Pharmaceuticals, 2025)
